Results reported in US11332438B2, “Creatine prodrugs, compositions and methods of use thereof” (Ultragenyx Pharmaceutical Inc., priority 2017, dated 2022).
Read-outs that look alike come from different tables or passages of the source. Values belong to the compound of their own block, whether it stands above or below them.

Experiments:
[1] = rcm bond, DCM, 50.0 °C
[2] = rcm bond, Grubbs II, 50.0 °C
[3] = Chemical stability in simulated intestinal fluid (SIF) without pancreatin; type: physicochemical; conditions: Table 2A, 50 μM prodrug
Description: Chemical stability of creatine prodrugs in phosphate buffered saline (PBS), simulated intestinal fluid (SIF) without pancreatin, simulated gastric fluid (SGF) without pepsin were determined by LC-UV, LC-CAD, LC-UV-CAD or LC-MS/MS as appropriate. Creatine prodrugs of the present disclosure (50 μM) were incubated at 37° C. according to described protocols and prodrug levels were compared between t=0, t=15, t=60, and t=120 mins by peak area ratio to determine the percentage remained at t=120 mins (2 h).
Protocol for PBS, SIF and SGF stability for screening:
Prodrugs (50 μM) were incubated in PBS, FaSSIF (Biorelevant) or FaSSGF (Biorelevant) at 37° C.

[4] = Chemical stability in simulated gastric fluid (SGF) without pepsin; type: physicochemical; conditions: Table 2A, 50 μM prodrug
Outline: (§1)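 Incubations used 50 μM compound at 37 °C in phosphate buffered saline, fasted simulated intestinal fluid without pancreatin, or fasted simulated gastric fluid without pepsin.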

[5] = Chemical stability in phosphate buffered saline (PBS); type: physicochemical; conditions: Table 2A, 50 μM prodrug
Outline: as §1

[6] = In vivo IV dosing in CrT KO mice: prodrug, d3-Cr and d3-Crn in brain (Table 5)
Description: A creatine prodrug is administered as an intravenous bolus injection to groups of three to six adult male CD1 mice at an appropriate creatine prodrug dose equivalent per kg body weight. Animals are conscious at the time of the experiment. Blood samples (0.3 mL) are obtained via a jugular vein cannula at intervals over 8 hours following IV dosing. Blood is processed into plasma, then the plasmais immediately frozen at −80° C. until analyzed by LC-MS/MS. Samples may also be taken form the CSF or other appropriate biological fluid. Brains were collected and flash frozen immediately in liquid nitrogen. Brains were homogenized in 100 mM KPI buffer with a cocktail of anti-proteases on the same day as the sample preparation required for LC-MS/MS analysis.
Several prodrugs with either free COOH group and ester linkage and macrocycles were selected for IV dosing in animal study to assess PK and d3-Cr release in brain in vivo. Prodrugs were IV dosed in CrT KO mice at 10, 15, or 25 mg/kg in animal studies. Mouse brain homogenates (MBH) were prepared from brains collected from mice after dosing. Levels of prodrug, d3-Cr and d3-Crn were quantified in brain and expressed in brain concentration (for macrocycle prodrugs) or AUC (for linear prodrugs) over time. Very few prodrugs were detected in MBH.

[7] = Plasma stability, human plasma; type: in vitro ADME; conditions: Table 2A, 37 °C, read-out: Plasma Stability Human t1/2
Outline: (§2)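 Half-life (min) from LC-MS/MS of acetonitrile-quenched samples taken at t=0, 2, 5, 15, 30 min. Compound dosed at 1 µM final into plasma pre-warmed to 37 °C, pH set to 7.4 where required; incubations at 37 °C.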

[8] = Liver microsome stability, mouse; type: in vitro ADME; conditions: liver microsomes, pH 7.4, Table 2A, read-out: Microsome Stability Mouse t1/2
Outline: (§3)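 Remaining compound measured by LC/MS after acetonitrile/internal-standard quench at 0–60 min time points (0, 5, 10, 20, 30, 60). Incubations used mouse or human liver microsomes in pH 7.4 potassium phosphate/EDTA buffer with NADPH; a 60-min sample without NADPH served as control.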

[9] = Plasma stability, mouse plasma; type: in vitro ADME; conditions: Table 2A, 37 °C, read-out: Plasma Stability Mouse t1/2
Outline: as §2

[10] = Liver microsome stability, human; type: in vitro ADME; conditions: liver microsomes, pH 7.4, Table 2A, read-out: Microsome Stability Human t1/2
Outline: as §3

Compound: [2H]C([2H])([2H])N1CC(=O)OCCCCCCCC/C=C/CCCCCCCC(=O)N/C1=N/C(=O)OCc1ccccc1
ring closure, isolated yield ([1]; from [2H]C([2H])([2H])N(CC(=O)OCCCCCCCCC=C)/C(=N\C(=O)OCc1ccccc1)NC(=O)CCCCCCCC=C, 24-membered ring, Grubbs II (10 mol%), 1.79 mM, 2.0 h): 78%

Compound: [2H]C([2H])([2H])N1CC(=O)OC2(CCC=CCCCCCC(=O)N/C1=N/C(=O)OCc1ccccc1)CCC2
ring closure, yield of all isomers ([2]; from [2H]C([2H])([2H])N(CC(=O)OC1(CCC=C)CCC1)/C(=N\C(=O)OCc1ccccc1)NC(=O)CCCCCC=C, dichloromethane, 2.4 mM): 33%

Compound: CC1CC=CCCCCCCCC(=O)NC(=NC(=O)OC(C)(C)C)N(C)CC(=O)O1 (stereo not shown)
ring closure, isolated yield ([1]; from [2H]C([2H])([2H])N(CC(=O)OC(C)CC=C)C(=NC(=O)OC(C)(C)C)NC(=O)CCCCCCCC=C, 18-membered ring, Grubbs II, 2.0 h, 2 steps): 53%

Compound: [2H]C([2H])([2H])N1CC(=O)OCCCC/C=C\CCCCCCCC(=O)N/C1=N/C(=O)OC(C)(C)C
ring closure, isolated yield ([1]; from [2H]C([2H])([2H])N(CC(=O)OCCCCC=C)C(=NC(=O)OC(C)(C)C)NC(=O)CCCCCCCC=C, 20-membered ring, Grubbs II): 90%

Compound: (Z)-tert-butyl-((E)-17-ethyl-4-trideuteriomethyl-2,7-dioxo-1-oxa-4,6-diazacycloheptadec-15-en-5-ylidene) carbamate
ring closure, isolated yield ([1]; 17-membered ring, Grubbs II (20 mol%), 2.82 mM): 86%

Chemical Stability SIF, no enzyme % T0 at 2 hours at 37 °C. [3]: 61% | Chemical Stability SGF, no enzyme % T0 at 2 hours at 37 °C. [4]: 94% | Chemical Stability PBS % T0 at 2 hours at 37 °C. [5]: 69% | crossing of BBB (in words) ([6]; CrT KO mice, IV dosing): did not seem to cross BBB | AUClast d3-Cr in the brain ([6]; IV 10 mg/kg, CrT KO mouse brain, BQL d3-Cr = 13.7 ng/mL): BQL | AUClast d3-Crn in the brain ([6]; IV 10 mg/kg, CrT KO mouse brain, BQL d3-Crn = 1.5 ng/mL): BQL | AUClast prodrug in the brain ([6]; IV 10 mg/kg, CrT KO mouse brain, BQL prodrug = 41.2 ng/mL): BQL
Compound: [2H]C([2H])([2H])N(CC(=O)[O-])C(=N)NC(=O)CCCCCCCCCC.[Na+] [Compound 4]

Compound: [2H]C([2H])([2H])N1CC(=O)OCCCCCCCC/C=C/CCCCCCCC(=O)NC1=NC(=O)OCc1ccccc1
ring closure, yield of all isomers ([2]; from [2H]C([2H])([2H])N(CC(=O)OCCCCCCCCC=C)C(=NC(=O)OCc1ccccc1)NC(=O)CCCCCCCC=C, dichloromethane, 1.79 mM): 78%

Compound: CN1CC(=O)OC(C)(C)CCCC=CCCC(=O)NC1=NC(=O)OCc1ccccc1
ring closure, isolated yield ([1]; from [2H]C([2H])([2H])N(CC(=O)OC(C)(C)CCCC=C)C(=NC(=O)OCc1ccccc1)NC(=O)CCC=C, 15-membered ring, Grubbs II): 50%

Compound: [2H]C([2H])([2H])N(CC(=O)[O-])C(=N)NC(=O)CCC/C=C\C/C=C\C/C=C\C/C=C\CCCCC.[Na+] [Compound 22]
half-life [7]: 2.17 h | Chemical Stability SIF, no enzyme % T0 at 2 hours at 37 °C. [3]: 86% | half-life at 10 μM [8]: 0.15 h | half-life [9]: > 3 h | Chemical Stability SGF, no enzyme % T0 at 2 hours at 37 °C. [4]: 30% | Chemical Stability PBS % T0 at 2 hours at 37 °C. [5]: 35% | half-life at 10 μM [10]: 0.4 h

Compound: [2H]C([2H])([2H])N1CC(=O)OC(CC)/C=C/CCCCCCCC(=O)N/C1=N/C(=O)OC(C)(C)C (stereo not shown)
ring closure, yield of all isomers ([2]; from [2H]C([2H])([2H])N(CC(=O)OC(C=C)CC)/C(=N\C(=O)OC(C)(C)C)NC(=O)CCCCCCCC=C, DCM, 2.82 mM): 86%

Compound: [2H]C([2H])([2H])N1CC(=O)OC2(CCC=CCCCCCC(=O)NC1=NC(=O)OCc1ccccc1)CCCC2
ring closure, yield of all isomers ([2]; from [2H]C([2H])([2H])N(CC(=O)OC1(CCC=C)CCCC1)C(=NC(=O)OCc1ccccc1)NC(=O)CCCCCC=C, dichloromethane, 1.95 mM): 84%

Compound: CN1CC(=O)OC(C)(C)CC=CCCCCCCCC(=O)NC1=NC(=O)OCc1ccccc1
ring closure, isolated yield ([1]; from [2H]C([2H])([2H])N(CC(=O)OC(C)(C)CC=C)/C(=N\C(=O)OCc1ccccc1)NC(=O)CCCCCCCC=C, 18-membered ring, Grubbs II (10 mol%), 2.0 mM, 2.0 h): 79%

Compound: [2H]C([2H])([2H])N(C(N)=NC(=O)OCc1ccccc1)N(CC(=O)O)C(=N)NC(=O)CCCCCC=C
ring closure, isolated yield ([1]; the molecule shown is the open-chain precursor, 17-membered ring, Grubbs II (10 mol%), 2.4 mM): 33%

Compound: [2H]C([2H])([2H])N1CC(=O)OC(C)C=CCCCCCCCC(=O)N/C1=N/C(=O)OC(C)(C)C (stereo not shown)
ring closure, yield of all isomers ([2]; from [2H]C([2H])([2H])N(CC(=O)OC(C)C=C)/C(=N\C(=O)OC(C)(C)C)NC(=O)CCCCCCCC=C, DCM, 2.28 mM): 77%

Compound: [2H]C([2H])([2H])N1CC(=O)OC2(CC/C=C/CCCCCC(=O)NC1=NC(=O)OCc1ccccc1)CCOC2 (stereo not shown)
ring closure, yield of all isomers ([2]; from [2H]C([2H])([2H])N(CC(=O)OC1(CCC=C)CCOC1)C(=NC(=O)OCc1ccccc1)NC(=O)CCCCCC=C, dichloromethane, 1.95 mM): 78%

Compound: [2H]C([2H])([2H])N1CC(=O)OC(C)(C)CC=CCCCCCCCC(=O)N/C1=N/C(=O)OCc1ccccc1
ring closure, yield of all isomers ([2]; from [2H]C([2H])([2H])N(CC(=O)OC(C)(C)CC=C)/C(=N\C(=O)OCc1ccccc1)NC(=O)CCCCCCCC=C, dichloromethane, 2.0 mM): 79%

half-life [7]: > 3 h | Chemical Stability SIF, no enzyme % T0 at 2 hours at 37 °C. [3]: 74% | half-life at 10 μM [8]: 1.37 h | half-life [9]: > 3 h | Chemical Stability SGF, no enzyme % T0 at 2 hours at 37 °C. [4]: 39% | Chemical Stability PBS % T0 at 2 hours at 37 °C. [5]: 150% | half-life at 10 μM [10]: 1.3 h
Compound: [2H]C([2H])([2H])N(CC(=O)[O-])C(=N)NC(=O)CCCCC/C=C\CCCCCCCCCC.[Li+] [Compound 24]

half-life [7]: < 0.0833 h | Chemical Stability SIF, no enzyme % T0 at 2 hours at 37 °C. [3]: 45% | half-life [9]: < 0.0833 h | Chemical Stability SGF, no enzyme % T0 at 2 hours at 37 °C. [4]: 111% | Chemical Stability PBS % T0 at 2 hours at 37 °C. [5]: 0%
Compound: [2H]C([2H])([2H])N(CC(=O)OCC)C(=N)NC(=O)CCCCCCCCCCCC [Compound 46]
